The source of these data is patent US10392422B2, “Macrocyclic broad spectrum antibiotics” (priority 2014, dated 2019).

Experiment [1] has as its system Escherichia coli MC4100 harboring the IMP4213. The experiment can be described thus: MIC, broth micro-dilution technique (CLSI). It is filed as cell-based. The note with it: Escherichia coli, 22 h. In outline: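 CLSI broth microdilution in cation-adjusted Mueller Hinton broth with 0.002% Tween-80. Ten 2-fold dilutions started from 64 μg/ml, or from 4 μg/mL in the modified protocol. Inoculum at final OD600 0.0005; MIC read after 22 h at 35 °C. E. coli strain carries imp4213 (increased outer-membrane permeability).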
(Dilution methods test growth across graded concentrations, often in twofold steps.)

For experiment [2], the system named is Methicillin Resistant Staphylococcus aureus strain USA 300 (NRS384). The experiment can be described thus: MIC, broth micro-dilution technique (CLSI). Type of experiment: cell-based. The note with it: Staphylococcus aureus, 22 h, read-out: MIC (μg/mL) S. aureus. In outline: (§1)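 Cation-adjusted MHB + 0.002% Tween-80; 10-point 2-fold series starting 64 μg/ml (modified protocol: 4 μg/mL). Final inoculum OD600 0.0005; 35° C, 22 h. MIC per CLSI M07-A8 broth microdilution.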

A further experiment deals with MRSA COL (NRS100). The experiment can be described thus: MIC, broth micro-dilution technique (CLSI). It is filed as cell-based, Staphylococcus aureus. The note with it: Staphylococcus aureus, 22 h, read-out: MIC (μg/mL) (COL). The gist of the method: as §1
In the next experiment the test system is MRSA strain COL. The experiment can be described thus: Neutropenic thigh infection model, intravenous infusion. Type of experiment: in vivo, CD-1 mice. The note with it: Compound 115 (Css 2 or 6.4 ug/mL) co-dosed with imipenem (Css 0.3 μg/mL), infused 23 hours; 24 hours post infection; compared with either single agent; FIG. 3. The procedure:
Jugular vein cannulated CD-1 mice were subjected to induced neutropenia (<100 cells/mm^3) by injecting 150 mg/kg and 100 mg/kg cyclophosphamide at day −5 and day −2 respectively. At day −1, saline was infused at […] for 12 hours using Harvard Apparatus PHD 2000 Infusion pumps. At day 0, mice were infected in the thigh muscle with MRSA strain COL 4×10^5 CFU/50 μL. Four test groups and one vehicle group began dosing at 1 hour post infection:
Group 1 was the vehicle control (3% HP-beta-cyclodextrin in PBS)
Group 2 was the imipenem (Imp) group dosed at a concentration of 0.21 mg/mL solution, infused at 80 μL/hour for 23 hours, with a target steady-state concentration (Css) of 0.3 μg/mL.
Group 3 was the SpsB inhibitor Compound 115 group dosed at a concentration of 2.14 mg/mL solution, infused at 80 μL/hour for 23 hours to achieve a steady state concentration (Css) of 6.4 ug/mL.
Group 4 was the SpsB inhibitor Compound 115 group dosed at 0.67 mg/mL solution (Css 2 ug/mL) co-dosed with imipenem at a concentration of 0.21 mg/mL (Css of 0.3 μg/mL) infused at 80 μL/hour for 23 hours. […]
At 24 hours post infection, bacterial burden in the thigh muscle was determined by plating the tissue homogenate in series dilutions on blood agar plates. […]

Where [3] appears, read: read-out: MIC (μg/mL) E. coli, Table 1 protocol: serial 2-fold dilutions starting from 64 μg/ml, 35° C., 22 hours.
The mark [4] stands for this setting: read-out: MIC (μg/mL) E. coli, Table 2 modified protocol: serial 2-fold dilutions starting from 4 μg/mL, 35° C., 22 hours.
Setting [5] is: Table 1 protocol: serial 2-fold dilutions starting from 64 μg/ml, 35° C., 22 hours.
The mark [6] stands for this setting: Table 2 modified protocol: serial 2-fold dilutions starting from 4 μg/mL, 35° C., 22 hours.

Each structure is given as a SMILES string. ≈ marks a conversion by molar mass, not a printed value. Where two headings read alike, the source gives them in different places.

With `CCCCCCCCCCNCCC(=O)N[C@@H](CCCCN)C(=O)N(C)[C@@H]1C(=O)N[C@@H](C)C(=O)N[C@H](C(=O)N[C@@H](C)C(C)=O)Cc2ccc(O)c(c2)-c2cc1ccc2OCCN` [Compound 115], the values for the MIC (in experiment [1] (setting [3]); in experiment [2]; in the experiment with MRSA COL (NRS100)) were 19 µg/mL (≈ 22 µM), 0.63 µg/mL (≈ 0.728 µM) and 0.13 µg/mL (≈ 0.15 µM), respectively. The “bacterial burden in the thigh muscle” value in the experiment on MRSA strain COL is recorded as “greater reduction in bacterial burden”.
As to `CCCCc1ccc(-c2ccc(C(=O)N[C@@H](CCCCN)C(=O)N(C)[C@@H]3C(=O)N[C@@H](C)C(=O)N[C@H](C(=O)NCc4nnn[nH]4)Cc4ccc(OCCN)c(c4)-c4cc3ccc4OCCN)cc2)cc1` [Compound 328], the MIC was determined as 0.25 µg/mL (≈ 0.265 µM) in experiment [1] (read-out: MIC (μg/mL) E. coli), 2 µg/mL (≈ 2.12 µM) in experiment [2] and 0.5 µg/mL (≈ 0.529 µM) with MRSA COL (NRS100).
The matching figures for `CCCCc1ccc(-c2ccc(C(=O)N[C@@H](CCCCN)C(=O)N(C)[C@@H]3C(=O)N[C@@H](C)C(=O)N[C@H](C(=O)NCc4nnn[nH]4)Cc4ccc(O)c(c4)-c4cc3ccc4OCCN)cc2)cc1` [Compound 329]: 0.38 µg/mL (≈ 0.421 µM), greater than 4 µg/mL and 2 µg/mL (≈ 2.22 µM).
For the compound `CC(=O)[C@H](C)NC(=O)[C@@H]1Cc2ccc(OCCO)c(c2)-c2cc(ccc2OCCN)[C@H](N(C)C(=O)[C@H](CCCCN)NC(=O)c2ccc(-c3ccc(Cl)cc3)cc2)C(=O)N[C@@H](C)C(=O)N1` [Compound 330], the MIC in experiment [1] (setting [4]) is greater than 4 µg/mL; in experiment [2], 3 µg/mL (≈ 3.29 µM); with MRSA COL (NRS100), 1 µg/mL (≈ 1.1 µM).
As to `CC(=O)[C@H](C)NC(=O)[C@@H]1Cc2ccc(O)c(c2)-c2cc(ccc2OCCn2ccnc2)[C@H](N(C)C(=O)[C@H](CCCCN)NC(=O)c2ccc(-c3ccc(Cl)cc3)cc2)C(=O)N[C@@H](C)C(=O)N1` [Compound 331], the MIC is 8 µg/mL (≈ 8.7 µM) in experiment [1] (setting [3]), 16 µg/mL (≈ 17.4 µM) in experiment [2] (setting [5]) and 2 µg/mL (≈ 2.18 µM) in the experiment with MRSA COL (NRS100) (setting [5]).
Regarding `CC(=O)[C@H](C)NC(=O)[C@@H]1Cc2ccc(O)c(c2)-c2cc(ccc2OCCN2CCN(C)CC2)[C@H](N(C)C(=O)[C@H](CCCCN)NC(=O)c2ccc(-c3ccc(Cl)cc3)cc2)C(=O)N[C@@H](C)C(=O)N1` [Compound 332], the results for the MIC (in experiment [1] (setting [3]); in experiment [2] (setting [5]); in the experiment on MRSA COL (NRS100) (setting [5])) were 64 µg/mL (≈ 67.3 µM), 64 µg/mL (≈ 67.3 µM) and 8 µg/mL (≈ 8.41 µM), respectively.
In the case of `C[C@@H]1NC(=O)[C@@H](N(C)C(=O)[C@H](CCCCN)NC(=O)c2ccc(-c3ccc(Cl)cc3)cc2)c2ccc(O)c(c2)-c2cc(ccc2O)C[C@@H](C(=O)N[C@@H](C)C(=O)N(C)c2cc[nH]n2)NC1=O` [Compound 333], the MIC in experiment [1] (setting [3]) was determined as 32 µg/mL (≈ 35.3 µM); in experiment [2] (setting [5]), 64 µg/mL (≈ 70.6 µM); in the experiment on MRSA COL (NRS100) (setting [5]), 16 µg/mL (≈ 17.7 µM).
With `CCCCc1ccc(-c2ccc(C(=O)N[C@@H](CCCN)C(=O)N(C)[C@@H]3C(=O)N[C@@H](C)C(=O)N[C@H](C(=O)NCC(=O)O)Cc4ccc(OCCN)c(c4)-c4cc3ccc4OCCN)cc2)cc1` [Compound 334], the MIC in experiment [1] (setting [4]) is 0.13 µg/mL (≈ 0.143 µM); in experiment [2] (setting [6]) it was 1 µg/mL (≈ 1.1 µM); with MRSA COL (NRS100) (setting [6]), 0.38 µg/mL (≈ 0.419 µM).
For `CCCCc1ccc(-c2ccc(C(=O)N[C@@H](CCCN)C(=O)N(C)[C@@H]3C(=O)N[C@@H](C)C(=O)N[C@H](C(N)=O)Cc4ccc(OCCN)c(c4)-c4cc3ccc4OCCN)cc2)cc1` [Compound 335], the MIC in experiment [1] (setting [4]) stood at 0.13 µg/mL (≈ 0.153 µM); in experiment [2], 0.19 µg/mL (≈ 0.224 µM); in the experiment on MRSA COL (NRS100), 0.063 µg/mL (≈ 0.0742 µM).
Turning to `CCCCc1ccc(-c2ccc(C(=O)N[C@@H](CCCN)C(=O)N(C)[C@@H]3C(=O)N[C@@H](C)C(=O)N[C@H](CO)Cc4ccc(OCCN)c(c4)-c4cc3ccc4OCCN)cc2)cc1` [Compound 336], the results for the MIC (in experiment [1] (setting [4]); in experiment [2]; with MRSA COL (NRS100)) were 0.25 µg/mL (≈ 0.299 µM), 0.5 µg/mL (≈ 0.598 µM) and 0.13 µg/mL (≈ 0.155 µM), respectively.
Consider `CCCCc1ccc(-c2ccc(C(=O)N[C@@H](CCCN)C(=O)N(C)[C@@H]3C(=O)N[C@@H](C)C(=O)N[C@H](C(=O)NS(C)(=O)=O)Cc4ccc(OCCN)c(c4)-c4cc3ccc4OCCN)cc2)cc1` [Compound 337], for which the MIC turned out to be 0.047 µg/mL (≈ 0.0507 µM) in experiment [1] (setting [4]), 2 µg/mL (≈ 2.16 µM) in experiment [2] and 0.75 µg/mL (≈ 0.809 µM) in the experiment with MRSA COL (NRS100).
`CCCCc1ccc(-c2ccc(C(=O)N[C@@H](CCCN)C(=O)N(C)[C@@H]3C(=O)N[C@@H](C)C(=O)N[C@H](C(=O)NS(=O)(=O)C(F)(F)F)Cc4ccc(OCCN)c(c4)-c4cc3ccc4OCCN)cc2)cc1` [Compound 338]: the values for the MIC (in experiment [1] (setting [4]); in experiment [2] (setting [6]); with MRSA COL (NRS100) (setting [6])) were 0.63 µg/mL (≈ 0.642 µM), 3 µg/mL (≈ 3.06 µM) and 2.5 µg/mL (≈ 2.55 µM), respectively.
Turning to `CCCCCCCCCCNCCC(=O)N[C@@H](CCCCN)C(=O)N(C)[C@@H]1C(=O)N[C@@H](C)C(=O)N[C@H](C(=O)N[C@@H](C)C(C)=O)Cc2ccc(O)c(c2)-c2cc1ccc2OC1O[C@H](CO)[C@@H](O)[C@H](O)[C@H]1N` (stereo partly shown) [Compound 339], the MIC in experiment [1] (setting [4]) is greater than 4 µg/mL; in experiment [2], 2 µg/mL (≈ 2.03 µM); in the experiment with MRSA COL (NRS100), 1 µg/mL (≈ 1.02 µM).
Turning to `CCCCCCCCCCNCCC(=O)N[C@@H](CCCCN)C(=O)N(C)[C@@H]1C(=O)N[C@@H](C)C(=O)N[C@H](C(=O)N[C@@H](C)C(C)=O)Cc2ccc(OC3O[C@H](CO)[C@@H](O)[C@H](O)[C@H]3N)c(c2)-c2cc1ccc2OC1O[C@H](CO)[C@@H](O)[C@H](O)[C@H]1N` (stereo partly shown) [Compound 340], the results for the MIC (in experiment [1] (setting [4]); in experiment [2]; in the experiment on MRSA COL (NRS100)) were greater than 4 µg/mL, greater than 4 µg/mL and 2 µg/mL (≈ 1.75 µM), respectively.
